Assay results taken from paper PMC7748285, “A small molecule that mitigates bacterial infection disrupts Gram-negative cell membranes and is inhibited by cholesterol and neutral lipids” (PLoS Pathogens, 2020).

Target: T1, AcrB (Escherichia coli, UniProt P31224)
T1 construct: 4·His tag at the C-terminus
Experiment: isothermal titration calorimetry (ITC) with purified AcrB, […]°C
Type: binding

T1 sequence (P31224 whole entry): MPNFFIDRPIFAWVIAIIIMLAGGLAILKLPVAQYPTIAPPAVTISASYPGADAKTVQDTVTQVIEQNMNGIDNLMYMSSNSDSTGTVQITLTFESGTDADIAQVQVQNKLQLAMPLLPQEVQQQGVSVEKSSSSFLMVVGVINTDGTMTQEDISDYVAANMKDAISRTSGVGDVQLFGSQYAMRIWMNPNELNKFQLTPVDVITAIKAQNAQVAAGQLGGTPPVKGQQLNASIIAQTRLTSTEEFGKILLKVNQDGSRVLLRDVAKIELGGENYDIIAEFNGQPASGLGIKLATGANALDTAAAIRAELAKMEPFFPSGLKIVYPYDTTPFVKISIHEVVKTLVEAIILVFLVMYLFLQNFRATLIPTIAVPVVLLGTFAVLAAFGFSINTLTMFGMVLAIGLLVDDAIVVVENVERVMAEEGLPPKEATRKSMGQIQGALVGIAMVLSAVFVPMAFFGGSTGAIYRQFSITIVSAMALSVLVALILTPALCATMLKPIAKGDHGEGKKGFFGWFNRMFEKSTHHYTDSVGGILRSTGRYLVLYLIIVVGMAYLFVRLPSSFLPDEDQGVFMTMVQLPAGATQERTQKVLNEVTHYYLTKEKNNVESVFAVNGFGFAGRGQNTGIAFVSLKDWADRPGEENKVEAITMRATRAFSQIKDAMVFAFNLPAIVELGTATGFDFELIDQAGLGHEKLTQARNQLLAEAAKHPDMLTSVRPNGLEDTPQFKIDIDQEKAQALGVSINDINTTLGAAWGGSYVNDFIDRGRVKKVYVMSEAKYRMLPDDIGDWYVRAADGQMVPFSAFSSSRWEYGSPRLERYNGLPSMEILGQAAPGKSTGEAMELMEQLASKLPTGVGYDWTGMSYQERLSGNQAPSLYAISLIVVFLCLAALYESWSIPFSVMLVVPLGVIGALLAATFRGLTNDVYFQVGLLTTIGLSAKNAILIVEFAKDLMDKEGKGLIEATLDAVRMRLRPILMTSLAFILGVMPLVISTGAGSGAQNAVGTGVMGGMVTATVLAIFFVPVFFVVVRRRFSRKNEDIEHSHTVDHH

OC(COc1ccc(C23CC4CC(CC(C4)C2)C3)cc1)CN1CCCCC1 (stereo not shown) [JD1] gave a Kd of 520 nM.
